Results reported in Sander's compilation of Henry's law constants (doi:10.1021/jf60162a025).

Experiment: Henry solubility constant Hcp at 298.15 K (mol/(m3 Pa))
Conditions: reference: Buttery et al. (1969)

SMILES | Henry solubility constant Hcp
CCCC(=O)OC [methyl butanoate] | 0.048
CCCCCCCC(C)=O [2-nonanone] | 0.027
CCCC(C)=O [2-pentanone] | 0.16
COC(C)=O [methyl ethanoate] | 0.086
CCCCCCO [1-hexanol] | 0.58
CCCCCCCCC=O [nonanal] | 0.013
CCCCCCC=O [heptanal] | 0.037
CCCC=O [butanal] | 0.086
CCCCCCCC(=O)OC [methyl octanoate] | 0.013
CCCCCC(=O)OC [methyl hexanoate] | 0.027
CCCCCCCCO [1-octanol] | 0.4
CCCCCCCCCC(C)=O [2-undecanone] | 0.016
CCCCC=O [pentanal] | 0.067
CCCCCCCC=O [octanal] | 0.019
CCC(=O)OC [methyl propanoate] | 0.057
CCCCCCC(C)=O [2-octanone] | 0.052
CCCCCC(C)=O [2-heptanone] | 0.068
CCCCC(=O)OC [methyl pentanoate] | 0.031
CC(C)=O [propanone] | 0.25
